{"source": "patent US6838084B1", "about": "“Cytotoxic T-cell epitopes of the papilloma virus l1-protein and use thereof in diagnosis and therapy” (priority 1999, dated 2005)", "key": {"[1]": {"tested_on": "BLCL cells of an HLA A24-positive donor", "test": "Lysis of BLCL cells loaded with peptide 9 (51Cr release)", "assay_type": "cell-based, human", "method": "The target cells were lysed by T cells stimulated with peptides 1-43 (=effector cells) . […] The % values were calculated according to the formula given in Example 7.\nBLCL cells of an HLA A24-positive donor were incubated with […] at 37° C. for one hour, washed three times with medium and divided into 2 aliquots. 10 μg/ml of peptide 9 were added to one aliquot of the cells, and the other aliquot served as a negative control in the absence of a peptide. Subsequently, in each case 2000 cells (=target cells). were added to increasing amounts of T cells (=effector cells) in a total volume of 150 μl. The T cells had been stimulated previously over 5 weeks with a mixture of 43 peptides (peptides 1-43, 1 μg/ml each). Reaction mixtures for spontaneous and maximum cell lysis were set up in parallel. For spontaneous lysis, target cells which were incubated in medium were used, and for maximum lysis target cells which were incubated with 0.5% Triton were used. The mixtures were incubated at 37° C. for 5 h. 50 μl of mixture supernatant were applied to Luma plates and dried at room temperature overnight. On the following morning, the amount of radioactive ^51Cr was determined with the aid of a Canberra-Packerd B-plate counter (counts) and compared to the maximal lysed cells of the Triton mixture. The percentage of specific lysis was determined according to the formula: x=100·(counts−spontaneous counts)/(maximal counts−spontaneous counts)."}, "CVLP-stimulated T cells": {"tested_on": "CVLP-stimulated T cells", "test": "Restimulation of CVLP-stimulated T cells with peptide pools, HLA A24-positive donor", "assay_type": "cell-based, human", "settings": "common to pools A and 2", "method": "The name of the particular peptide pool with which the BLCLs were loaded is listed from left to right. “None” represents BLCLs which were incubated only with buffer.\nThe 20 mer peptides 1 to 51 were combined in peptide pools A to H and 1 to 7 according to the matrix\nThe T cells of an HLA A1-positive donor were then restimulated in 100 μl of medium at 37° C. with the peptide pools in the presence of 10 IU/ml IL2. In this connection, such amounts of peptide pools were used that for each individual peptide 1 μg/ml was added. Cells incubated only with buffer served as a negative control.\nAfter one hour, 1 μl of Golgi Plug was added. The cells were incubated at 37° C. for a further 5 hours. The cells were then fixed and permeabilized, and stained with α-hum CD8/PE, with α-hum CD4/Cychrome and with α-hum γ-interferon/FITC. The cells were examined in a FACScan calibur with respect to their label and the data were analyzed with the aid of Cellquest software.\nFurthermore, the T cells of an HLA A24-positive donor were restimulated with the peptide pools as above and analyzed."}}}
{"sequence": "SFYNPDTQRLVWACVGVEVG [Peptide 9]", "values": [{"measurement": "lysis of peptide-loaded BLCL target cells by T cells (51Cr release)", "setting": "[1]; 10 μg/ml peptide, effector T cells stimulated 5 weeks with peptides 1-43, 5 h, FIG. 8", "value": "lyse BLCL cells loaded with peptide 9 effectively"}, {"measurement": "Epitop-Information (HLA restriction)", "setting": "[1]; Table 2", "value": "HLA A24 restr."}, {"measurement": "Epitop-Information (epitope type)", "setting": "[1]; Table 2", "value": "cytotoxic epitope"}, {"measurement": "epitope classification", "setting": "[1]; conclusion from FIG. 8", "value": "HLA A24-restricted cytotoxic T-cell epitope"}, {"measurement": "peptide responsible for restimulation, deduced from pool matrix", "setting": "CVLP-stimulated T cells", "value": "in all probability responsible for restimulation of CVLP-stimulated T cells"}]}
